Results on eight compounds are retold here after article PMC10614163 (ACS nano, 2023).

SMILES strings stand for the structures.

For series [1], the target named is M^pro (Severe acute respiratory syndrome coronavirus 2, UniProt P0DTD1). Nature of the series: M^pro-mediated dye release from coacervates. The series is classed as biochemical, SARS-CoV-2. As to conditions: (R5R5, D10) coacervates, 100 μM dye.
For series [2] the following is noted: for partitioning / effect on coacervates, in words: confocal microscopy, (R5R5, D10) coacervates.

As for `CN(C)c1ccc2nc3ccc(N)cc3[s+]c2c1.[Cl-]` [Azure A, azure A], the “Release efficiency, RE%, by M^pro” value in series [1] is 95 ± 1%. In addition, the “Encapsulation efficiency, EE%” value in series [2] is 50 ± 1%. For `CNc1ccc2nc3ccc(N)cc3[s+]c2c1` [Azure C, azure C] the same measures were 98 ± 1% and 65 ± 2%.

For `O=C1OC2(c3ccc(O)cc3Oc3cc(O)ccc32)c2ccccc21` [Fluoresceine, fluoresceine], the “Release efficiency, RE%, by M^pro” value in series [1] amounted to 73 ± 7%. With `CC1(C)C(/C=C/C=C/C=C/C=C2\N(CCCCS(=O)(=O)[O-])c3ccc4ccccc4c3C2(C)C)=[N+](CCCCS(=O)(=O)[O-])c2ccc3ccccc3c21.[Na+]` [ICG dye], the “partitioning / effect on coacervates, in words” value in series [2] is on record as “rapidly cause transformation of coacervates into solid aggregates”. In the case of `Cc1cc2nc3ccc(N(C)C)cc3nc2cc1N.Cl` [Neutral red, neutral red], in series [1], the “Release efficiency, RE%, by M^pro” value was 99 ± 1%. Besides, the “Encapsulation efficiency, EE%” value in series [2] was 93 ± 1%. Take `CC/N=c1\cc2oc3cc(NCC)c(C)cc3c(-c3ccccc3C(=O)OCC)c-2cc1C` [Rhodamine 6G, rhodamine 6G]: in series [1], the “Release efficiency, RE%, by M^pro” value is listed as 98 ± 1%. The “Encapsulation efficiency, EE%” value in series [2] came to 64 ± 4%. Consider `CCN(CC)c1ccc2c(-c3ccccc3C(=O)O)c3ccc(=[N+](CC)CC)cc-3oc2c1` [Rhodamine B, rhodamine B], for which, in series [1], the “Release efficiency, RE%, by M^pro” value is recorded as 96 ± 2%. Further, the “Encapsulation efficiency, EE%” value in series [2] is recorded as 56 ± 1%. Turning to `COc1cccc2c1C(=O)c1c(O)c3c(c(O)c1C2=O)C[C@@](O)(C(=O)CO)C[C@@H]3O[C@H]1C[C@H](N)[C@H](O)[C@H](C)O1` [doxorubicin], in series [2], the “partitioning / effect on coacervates, in words” value is “rapidly cause transformation of coacervates into solid aggregates”.
